According to US20090233307A1, “METHODS FOR DETECTION OF SINGLE STRAND BREAKS IN DNA” (The University of North Carolina at Chapel Hill, priority 2008, published 2009):

Legend:
[1] = test system: Chinese hamster ovary (CHO) AA8 cells; assay: OTX-coupled comet assay; assay type: cell-based; conditions: 10 minute exposure to 1 mM MMS, CHO AA8
Method: Chinese hamster ovary (CHO) AA8 cells were seeded at a concentration 0.5×10^6 cell/mL into several 10 cm culture dishes with 10 mL of MEM-α media (Gibco) supplemented with 10% fetal bovine serum (heat inactivated; Sigma), 100 μg/mL penicillin, and 100 μg/mL streptomycin. These were allowed to grow for 48 hours at 37° C. and 5% CO2. Culture dishes were about 80-85% confluent at harvest.
Before cells were harvested for use in the comet assay, the lysis solution (2.5 M NaCl, 100 mM Na2-EDTA, 10 mM Trizma, pH 10) was completed with the addition of 10% (v/v) DMSO and 1% (v/v) Triton X-100, mixed thoroughly, and refrigerated at 4° C. A 0.5% solution of low melting point agarose (LMPA) was also prepared and allowed to equilibrate to 37° C. in a water bath. Partially frosted microscope slides, pre-coated several days before with 50 μL of 1% normal melting point agarose (NMPA), were labeled and set aside.
Prior to cell harvest, the media was removed and each dish was washed with 10 mL of 1×PBS. An additional 2 mL of 1×PBS was added to each dish and the cells were harvested using a rubber policeman. Harvested cells were combined into 15 mL centrifuged tubes and gently mixed by pipetting to obtain a homogenous cell sample. The cell count was obtained using a hemacytometer. The volume of cell sample needed to obtain 11,000 cells per slide to be prepared was added to a new 15 mL centrifuge tube and centrifuged for 5 minutes at 1,100 RPM. The supernatant was removed and the cell pellet resuspended in 1×PBS at a volume equal to 10 μL per slide to be prepared (e.g. 5 slides×10 μL per slide=50 μL 1×PBS total).
For each slide to be prepared, 10 μL of the cell sample was added to a 1.5 mL centrifuge tube. The cell layer of the slide was created by first gently mixing 100 μL of the 0.5% LMPA with the 10 μL of cell sample in the tube. This mixture was then added to a pre-coated slide and a coverslip placed onto the slide to create a thin layer of the cell mixture. Slides with cell layers were then refrigerated at 4° C. for 15 minutes to solidify the gel. After this incubation, the initial coverslips were removed and an additional 150 μL of 0.5% LMPA was added to each slide. A fresh coverslip was placed onto each slide to create a thin top layer and the slides were refrigerated for another 15 minutes. After removing the coverslip, completed slides that were receiving MMS treatment were placed in a slide chamber containing warmed MEM-α media with 1 mM MMS for 10 minutes. The slide chamber was kept warm by placing it within an incubator held at 37° C. After the 10 minutes, the slides were washed with 1×PBS for 5 minutes at room temperature and then transferred to slide chambers containing the chilled lysis solution. […]

Pol β null cells [2] = assay: SSB repair through NAD(P)H depletion, Pol β null cells; assay type: cell-based, chicken; conditions: 1 mM MMS for up to 4 hours, Pol β null cells
Method: SSB repair capacity was determined by a real-time colorimetric assay that measures intracellular NAD(P)H levels (Tano et al., DNA Repair, 6, 869-875 (2007)). PARP-1 activation during SSB repair leads to NAD^+ consumption, which can be indirectly monitored through NAD(P)H depletion (Nakamura et al., Nucleic Acids Res., 31, e104 (2003)). Briefly, 5×10^3 cells/well were seeded into a 96-well plate. After a 30 minute incubation period, the cells were treated with 1 mM MMS quickly followed by the addition of a dye containing XTT (Sigma) and 1-methoxy PMS (Sigma). For up to 4 hours, the NAD(P)H-dependent conversion of the XTT tetrazolium salt to a yellow colored formazan dye was measured spectrophotometrically. Decreases in intracellular NAD(P)H levels were determined through comparison of values to those of the PBS control. Established methods for detecting SSBs have not been adequately characterized for pH effects on DNA structure and chemistry and also lack a high specificity for SSBs, primarily because of artifactual SSB formation. […] The accumulation of SSBs leads to PARP-1 over-activation and the consumption of NAD+, which is indirectly monitored in living cells through the measurement of intracellular NAD(P)H depletion using tetrazolium salts, such as XTT, during chemical exposure (Tano et al., DNA Repair, 6, 869-875 (2007)). […]

Pol β null cells [3] = assay type: cell-based, chicken
Method: DT40 and Pol β null cells were seeded into 100 cm dishes and allowed to divide overnight to reach the density of 1×10^6 cells/mL. Cells were exposed to a continuous treatment of 1 mM methyl methanesulfonate (MMS; Aldrich) for up to 4 hours. Control cells received 1× phosphate buffered saline (PBS) for 0.5 hour. After incubation, cells were harvested, washed with chilled 1× PBS, pelleted, and stored at −80° C. until DNA isolation. Using this protocol, DT40 cells were also incubated in the absence of chemical to obtain a stock of untreated DNA.

COS(C)(=O)=O [MMS, methyl methanesulfonate]
tail moment compared to the untreated control (no MMS) [1]: significant difference in tail moment
intracellular NAD(P)H levels (Pol β null cells [2]): time-dependent decrease but with more extensive depletion occurring as early as 30 minutes
AP site formation (ASB assay) compared with parental DT40 cells (Pol β null cells [3]): more massive AP site formation
AP sites (ASB assay) compared to control (Pol β null cells [3]; chicken, 1 mM): time-dependent, significant (p<0.01 for all time points, student t-test) increase in AP sites
